Data from US9278146B2, “Peptide derivative and use of the same” (priority 2010, dated 2016).

Key:
[1] = test system: pancreatic β-cells; experiment: Two-dimensional imaging analysis (fluorescence and autoradiography) of pancreas sections; format: in vivo, MIP-GFP mouse; conditions: without blocking
[2] = mouse, in vivo
Method: (§1) After 5 minutes, 15 minutes, 30 minutes, 60 minutes, and 120 minutes from the administration, organs were dissected out of the mice (n=5).
as §1
(§2) (IB-PEG3)12-Ex4 (0.77 μCi) was administered to unanesthetized 6-week-old ddY mice (male, weight: 30 g) by intravenous injection (through the tail vein). After 5 minutes, 15 minutes, 30 minutes, 60 minutes, and 120 minutes from the administration, organs were dissected out of the mice (n=5). The weight and the radioactivity of each organ were determined, and an accumulation amount (% dose/g) of (IB-PEG3)12-Ex4 was calculated from the radioactivity per unit weight.
as §1
as §2, with “(FB-PEG3)12-Ex4 (5” for “(IB-PEG3)12-Ex4 (0.77”, “(FB-PEG3)12-Ex4” for “(IB-PEG3)12-Ex4”
as §2, with “(IB-ePEG12)12-Ex4 (0.21” for “(IB-PEG3)12-Ex4 (0.77”, “(IB-ePEG12)12-Ex4” for “(IB-PEG3)12-Ex4”

| Substance | localization of the radioactivity signal versus GFP signal in pancreas sections [1] | accumulation in the pancreas [2] | radioactive accumulation in the bone [2] | ratio of pancreas/blood [2] | ratio of pancreas/liver [2] |
| --- | --- | --- | --- | --- | --- |
| (FB-PEG3)12-Ex4 | substantially consistent with that of the GFP signal | exceeding 15 % dose/g | small | greater than 5 | greater than 10 |
| (IB-PEG3)12-Ex4 | substantially consistent with that of the GFP signal | exceeding 25 % dose/g | – | greater than 5 | greater than 10 |
| (IB-ePEG12)12-Ex4 | – | exceeding 25 % dose/g | – | greater than 5 | greater than 10 |
